From patent US20090018134A1, “Compounds - 945” (AstraZeneca AB, priority 2007, published 2009)

The molecules below were run against T1, mTOR (Homo sapiens, UniProt P42345) (assay: In Vitro mTOR Kinase Assay (Echo), Test (a)(ii)). Conditions: table of enzyme assay Test (a)(ii); read-out: Test (a)(ii) IC50.
T1 construct: FLAG; made in house
Type: biochemical
Method in brief: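 Enzyme: HEK293-expressed, FLAG-purified mTOR C-terminal fragment (aa 1362-2549). Rxn 2 h RT with biotinylated peptide, stopped with EDTA 50 mM/BSA/Tris pH 7.4. Detection: T389 phospho-antibody AlphaScreen, 680 nm excitation. IC50.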

T1 sequence (P42345 1362-2549): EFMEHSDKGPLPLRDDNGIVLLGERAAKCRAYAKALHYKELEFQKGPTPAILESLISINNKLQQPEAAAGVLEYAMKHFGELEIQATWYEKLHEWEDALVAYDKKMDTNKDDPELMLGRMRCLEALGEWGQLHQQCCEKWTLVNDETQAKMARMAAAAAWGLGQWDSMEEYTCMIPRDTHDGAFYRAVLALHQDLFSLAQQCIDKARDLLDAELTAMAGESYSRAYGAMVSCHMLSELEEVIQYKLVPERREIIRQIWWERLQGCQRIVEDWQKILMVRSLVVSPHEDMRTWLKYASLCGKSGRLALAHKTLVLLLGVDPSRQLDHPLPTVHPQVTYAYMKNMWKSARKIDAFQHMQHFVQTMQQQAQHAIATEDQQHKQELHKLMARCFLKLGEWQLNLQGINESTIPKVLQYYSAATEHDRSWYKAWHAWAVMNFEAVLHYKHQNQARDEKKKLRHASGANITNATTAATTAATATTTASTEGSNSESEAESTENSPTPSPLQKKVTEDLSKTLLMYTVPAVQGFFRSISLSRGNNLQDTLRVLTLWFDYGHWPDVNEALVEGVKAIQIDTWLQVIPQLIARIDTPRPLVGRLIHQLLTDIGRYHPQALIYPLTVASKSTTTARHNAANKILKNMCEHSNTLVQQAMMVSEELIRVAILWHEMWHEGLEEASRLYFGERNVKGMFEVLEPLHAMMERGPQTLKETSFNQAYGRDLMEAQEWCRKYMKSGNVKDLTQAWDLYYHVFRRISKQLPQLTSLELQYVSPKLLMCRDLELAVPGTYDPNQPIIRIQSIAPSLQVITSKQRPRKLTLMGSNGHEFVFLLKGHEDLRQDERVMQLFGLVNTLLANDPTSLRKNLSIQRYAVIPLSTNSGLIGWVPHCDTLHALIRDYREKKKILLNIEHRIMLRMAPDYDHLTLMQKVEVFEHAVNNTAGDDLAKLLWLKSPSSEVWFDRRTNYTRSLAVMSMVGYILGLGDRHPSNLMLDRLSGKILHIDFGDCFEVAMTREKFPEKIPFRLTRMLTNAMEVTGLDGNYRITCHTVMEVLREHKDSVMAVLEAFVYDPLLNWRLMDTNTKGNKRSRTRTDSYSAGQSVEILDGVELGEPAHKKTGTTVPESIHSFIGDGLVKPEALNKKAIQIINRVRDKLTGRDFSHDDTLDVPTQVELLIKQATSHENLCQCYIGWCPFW

Row | Compound | IC50
1 | C[C@H]1COCCN1c1cc(C2(S(=O)(=O)c3cc(F)ccc3F)CC2)nc(-c2ccc(NC(=O)NCCF)cc2)n1 [Example 60c, 1-[4-[4-[1-(2,5-difluorophenyl)sulfonylcyclopropyl]-6-[(3S)-3-methylmorpholin-4-yl]pyrimidin-2-yl]phenyl]-3-(2-fluoroethyl)urea] | 6.95 nM
2 | C[C@H]1COCCN1c1cc(C2(S(=O)(=O)c3cc(F)ccc3F)CC2)nc(-c2ccc(NC(=O)NCC(F)F)cc2)n1 [Example 60d, 3-(2,2-difluoroethyl)-1-[4-[4-[1-(2,5-difluorophenyl)sulfonylcyclopropyl]-6-[(3S)-3-methylmorpholin-4-yl]pyrimidin-2-yl]phenyl]urea] | 18.3 nM
3 | CCNC(=O)Nc1ccc(-c2nc(N3CCOC[C@@H]3C)cc(C3(S(=O)(=O)c4cc(F)ccc4F)CC3)n2)cc1 [Example 60e, 3-[4-[4-[1-(2,5-difluorophenyl)sulfonylcyclopropyl]-6-[(3S)-3-methylmorpholin-4-yl]pyrimidin-2-yl]phenyl]-1-ethylurea] | 11.6 nM
4 | C[C@H]1COCCN1c1cc(C2(S(=O)(=O)c3cc(F)ccc3F)CC2)nc(-c2ccc(NC(=O)Nc3cnn(C)c3)cc2)n1 [Example 60f, 1-[4-[4-[1-(2,5-difluorophenyl)sulfonylcyclopropyl]-6-[(3S)-3-methylmorpholin-4-yl]pyrimidin-2-yl]phenyl]-3-(1-methylpyrazol-4-yl)urea] | 17.3 nM
5 | CNC(=O)Nc1ccc(-c2nc(N3CCOC[C@@H]3C)cc(C3(S(=O)(=O)c4cc(F)ccc4C)CC3)n2)cc1 [Example 61, 1-[4-[4-[1-(5-Fluoro-2-methylphenyl)sulfonylcyclopropyl]-6-[(3S)-3-methylmorpholin-4-yl]pyrimidin-2-yl]phenyl]-3-methylurea] | 26.9 nM
6 | Cc1ccc(F)cc1S(=O)(=O)C1(c2cc(N3CCOC[C@@H]3C)nc(-c3ccc(NC(=O)NC4CC4)cc3)n2)CC1 [Example 61a, 3-cyclopropyl-1-[4-[4-[1-(5-fluoro-2-methylphenyl)sulfonylcyclopropyl]-6-[(3S)-3-methylmorphohn-4-yl]pyrimidin-2-yl]phenyl]urea] | 32.6 nM
7 | Cc1ccc(F)cc1S(=O)(=O)C1(c2cc(N3CCOC[C@@H]3C)nc(-c3ccc(NC(=O)NCCO)cc3)n2)CC1 [Example 61b, 1-[4-[4-[1-(5-fluoro-2-methylphenyl)sulfonylcyclopropyl]-6-[(3S)-3-methylmorpholin-4-yl]pyrimidin-2-yl]phenyl]-3-(2-hydroxyethyl)urea] | 13.6 nM
8 | Cc1ccc(F)cc1S(=O)(=O)C1(c2cc(N3CCOC[C@@H]3C)nc(-c3ccc(NC(=O)NCCF)cc3)n2)CC1 [Example 61c, 3-(2-fluoroethyl)-1-[4-[4-[1-(5-fluoro-2-methylphenyl)sulfonylcyclopropyl]-6-[(3S)-3-methylmorpholin-4-yl]pyrimidin-2-yl]phenyl]urea] | 21.1 nM
9 | Cc1ccc(F)cc1S(=O)(=O)C1(c2cc(N3CCOC[C@@H]3C)nc(-c3ccc(NC(=O)NCC(F)F)cc3)n2)CC1 [Example 61d, 3-(2,2-difluoroethyl)-1-[4-[4-[1-(5-fluoro-2-methylphenyl)sulfonylcyclopropyl]-6-[(3S)-3-methylmorphohn-4-yl]pyrimidin-2-yl]phenyl]urea] | 43.8 nM
10 | CCNC(=O)Nc1ccc(-c2nc(N3CCOC[C@@H]3C)cc(C3(S(=O)(=O)c4cc(F)ccc4C)CC3)n2)cc1 [Example 61e, 1-ethyl-3-[4-[4-[1-(5-fluoro-2-methylphenyl)sulfonylcyclopropyl]-6-[(3S)-3-methylmorpholin-4-yl]pyrimidin-2-yl]phenyl]urea] | 23.7 nM
11 | Cc1ccc(F)cc1S(=O)(=O)C1(c2cc(N3CCOC[C@@H]3C)nc(-c3ccc(NC(=O)Nc4cnn(C)c4)cc3)n2)CC1 [Example 61f, 1-[4-[4-[1-(5-fluoro-2-methylphenyl)sulfonylcyclopropyl]-6-[(3S)-3-methylmorpholin-4-yl]pyrimidin-2-yl]phenyl]-3-(1-methylpyrazol-4-yl)urea] | 32.8 nM
12 | C[C@H]1COCCN1c1cc(C2(S(C)(=O)=O)CCC2)nc(-c2ccc(NC(=S)NCCO)cc2)n1 [Example 62, 3-(2-Hydroxyethyl)-1-[4-[4-[(3S)-3-methylmorpholin-4-yl]-6-(1-methylsulfonylcyclobutyl)pyrimidin-2-yl]phenyl]thiourea] | 2.05 nM
13 | C[C@H]1COCCN1c1cc(C2(S(=O)(=O)c3ccncc3)CCC2)nc(-c2ccc(NC(=S)NCc3ncc[nH]3)cc2)n1 [Example 63, 3-(1H-Imidazol-2-ylmethyl)-1-[4-[4-[(3S)-3-methylmorpholin-4-yl]-6-(1-pyridin-4-ylsulfonylcyclobutyl)pyrimidin-2-yl]phenyl]thiourea] | 72.5 nM
14 | C[C@H]1COCCN1c1cc(C2(S(=O)(=O)c3ccc(OC(F)F)cc3)CC2)nc(-c2ccc(NC(=O)NC3CC3)cc2)n1 [Example 64, 3-Cyclopropyl-1-[4-[4-[1-[4-(difluoromethoxy)phenyl]sulfonylcyclopropyl]-6-[(3 S)-3-methylmorpholin-4-yl]pyrimidin-2-yl]phenyl]urea] | 7.85 nM

Other lines, results leading:

Row | IC50 | Compound
15 | 39.3 nM | C[C@H]1COCCN1c1cc(C2(S(C)(=O)=O)CCC2)nc(-c2ccc(NC(=S)NCc3ncc[nH]3)cc2)n1 [Example 62a, 3-(1H-imidazol-2-ylmethyl)-1-[4-[4-[(3S)-3-methylmorpholin-4-yl]-6-(1-methylsulfonylcyclobutyl)pyrimi-din-2-yl]phenyl]thiourea]
16 | 5.46 nM | C[C@@H](CO)NC(=S)Nc1ccc(-c2nc(N3CCOC[C@@H]3C)cc(C3(S(C)(=O)=O)CCC3)n2)cc1 [Example 62b, 3-[(2S)-1-hydroxypropan-2-yl]-1-[4-[4-[(3S)-3-methylmorpholin-4-yl]-6-(1-methylsulfonylcyclobutyl)pyrimi-din-2-yl]phenyl]thiourea]
17 | 37.5 nM | C[C@H](CO)NC(=S)Nc1ccc(-c2nc(N3CCOC[C@@H]3C)cc(C3(S(C)(=O)=O)CCC3)n2)cc1 [Example 62c, 3-[(2R)-1-hydroxypropan-2-yl]-1-[4-[4-[(3S)-3-methylmorpholin-4-yl]-6-(1-methylsulfonylcyclobutyl)pyrimi-din-2-yl]phenyl]thiourea]
18 | 22 nM | C[C@H]1COCCN1c1cc(C2(S(C)(=O)=O)CCC2)nc(-c2ccc(NC(=S)NCCCO)cc2)n1 [Example 62d, 3-(3-hydroxypropyl)-1-[4-[4-[(3S)-3-methylmorpholin-4-yl]-6-(1-methylsulfonylcyclobutyl)pyrimi-din-2-yl]phenyl]thiourea]
19 | 5.2 nM | CNC(=O)Nc1ccc(-c2nc(N3CCOC[C@@H]3C)cc(C3(S(=O)(=O)c4ccc(OC(F)F)cc4)CC3)n2)cc1 [Example 64a, 1-[4-[4-[1-[4-(difluoromethoxy)phenyl]sulfonyl-cyclopropyl]-6-[(3S)-3-methylmorpholin-4-yl]pyrimidin-2-yl]phenyl]-3-methylurea]
20 | 3.88 nM | C[C@H]1COCCN1c1cc(C2(S(C)(=O)=O)CC2)nc(-c2ccc(NC(=O)NCCF)cc2)n1 [Example 64aa, 3-(2-fluoroethyl)-1-[4-[4-[(3S)-3-methylmorpholin-4-yl]-6-(1-methylsulfonylcyclopropyl)pyrimi-din-2-yl]phenyl]urea]
21 | 9.4 nM | C[C@H]1COCCN1c1cc(C2(S(C)(=O)=O)CC2)nc(-c2ccc(NC(=O)NCC(F)F)cc2)n1 [Example 64ab, 3-(2,2-difluoroethyl)-1-[4-[4-[(3S)-methylsulfonylcyclopropyl)pyrimi-din-2-yl]phenyl]urea]
